Measurements taken from patent publication US11780893B2, “Kv1.3 blockers” (Zealand Pharma A/S, priority 2019, dated 2023).
pIC50: −log10 of the molar value. Bridge positions count the residues as written; N and C are the ends. Square brackets hold non-standard residues; d marks the D form. Peptide text beside a SMILES is read from it. Nle = CCCC[C@H](N)C(=O)O

How the values were obtained:
[1] = target: T1, human Kv1.3 voltage-gated K+ channel (Homo sapiens, UniProt P22001); test: cell-based; details: inhibition of thallium flux, CHO-DUKX cells with human Kv1.3; read-out: IC50
T1 construct: host or cells: CHO-DUKX
T1 sequence (P22001 whole entry): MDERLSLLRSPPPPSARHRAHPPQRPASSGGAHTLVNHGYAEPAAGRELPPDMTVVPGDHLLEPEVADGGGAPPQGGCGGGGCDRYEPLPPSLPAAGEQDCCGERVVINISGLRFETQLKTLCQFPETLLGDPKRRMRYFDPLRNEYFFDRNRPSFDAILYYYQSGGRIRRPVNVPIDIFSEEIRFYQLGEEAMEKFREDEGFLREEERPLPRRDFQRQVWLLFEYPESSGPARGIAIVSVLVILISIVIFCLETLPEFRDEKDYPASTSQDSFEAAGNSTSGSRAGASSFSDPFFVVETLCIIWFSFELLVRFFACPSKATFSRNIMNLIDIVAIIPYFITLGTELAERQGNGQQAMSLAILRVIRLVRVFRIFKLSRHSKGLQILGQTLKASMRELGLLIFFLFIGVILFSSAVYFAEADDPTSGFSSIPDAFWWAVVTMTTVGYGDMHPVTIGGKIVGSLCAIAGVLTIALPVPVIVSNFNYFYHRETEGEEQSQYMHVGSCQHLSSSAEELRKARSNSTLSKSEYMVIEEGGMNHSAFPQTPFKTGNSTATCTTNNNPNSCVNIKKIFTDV

Kv1.1 = target: T2, Kv1.1 (Homo sapiens, UniProt Q09470); test: cell-based; details: for IC50: CHO cells, whole-cell patch clamp, read-out: Potency IC50 (nM) Kv1.1; for Selectivity Kv1.1/Kv1.3: ratio IC50[Kv1.1]/IC50[Kv1.3]
T2 construct: expressed in transfected cells; host or cells: Chinese Hamster Ovary (CHO)
T2 sequence (Q09470 whole entry): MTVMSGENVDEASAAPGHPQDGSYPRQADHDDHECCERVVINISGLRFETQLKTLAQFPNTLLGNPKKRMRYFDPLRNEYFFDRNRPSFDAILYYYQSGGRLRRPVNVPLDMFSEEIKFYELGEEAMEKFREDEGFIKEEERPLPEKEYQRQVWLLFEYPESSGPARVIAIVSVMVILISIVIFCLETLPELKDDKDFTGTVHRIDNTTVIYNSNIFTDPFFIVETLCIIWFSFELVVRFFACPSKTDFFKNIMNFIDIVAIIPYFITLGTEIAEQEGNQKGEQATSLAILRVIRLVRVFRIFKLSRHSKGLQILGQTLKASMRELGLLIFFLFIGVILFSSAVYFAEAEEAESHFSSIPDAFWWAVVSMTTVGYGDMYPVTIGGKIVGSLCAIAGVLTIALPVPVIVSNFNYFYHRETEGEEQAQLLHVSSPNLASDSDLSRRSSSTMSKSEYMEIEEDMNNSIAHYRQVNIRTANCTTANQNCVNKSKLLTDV

Kv1.2 = target: T3, Kv1.2 (Homo sapiens, UniProt P16389); test: cell-based; details: CHO cells, whole-cell patch clamp; read-out: Potency IC50 (nM) Kv1.2
T3 construct: expressed in transfected cells; host or cells: Chinese Hamster Ovary (CHO)
T3 sequence (P16389 whole entry): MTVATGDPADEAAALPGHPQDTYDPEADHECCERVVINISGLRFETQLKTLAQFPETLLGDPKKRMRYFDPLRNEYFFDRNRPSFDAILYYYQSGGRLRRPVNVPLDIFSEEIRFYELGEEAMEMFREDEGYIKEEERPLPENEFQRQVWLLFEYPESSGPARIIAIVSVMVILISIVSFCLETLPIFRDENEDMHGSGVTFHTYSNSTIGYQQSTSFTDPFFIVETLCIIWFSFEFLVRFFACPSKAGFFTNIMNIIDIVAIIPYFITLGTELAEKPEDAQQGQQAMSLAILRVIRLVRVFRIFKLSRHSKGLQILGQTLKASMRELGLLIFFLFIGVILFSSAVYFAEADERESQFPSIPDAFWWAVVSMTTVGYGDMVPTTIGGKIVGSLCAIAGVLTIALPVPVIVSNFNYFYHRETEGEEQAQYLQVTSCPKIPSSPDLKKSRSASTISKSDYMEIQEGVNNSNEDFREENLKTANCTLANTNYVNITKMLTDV

Kv1.3 = target: T4, Kv1.3 (Homo sapiens, UniProt P22001); test: cell-based; details: CHO cells, whole-cell patch clamp; read-out: Potency IC50 (nM) Kv1.3
T4 construct: expressed in transfected cells; host or cells: Chinese Hamster Ovary (CHO)
T4 sequence (P22001 whole entry): as the sequence (P22001 whole entry) above

Kv1.6 = target: T5, Kv1.6 (Homo sapiens, UniProt P17658); test: cell-based; details: CHO cells, whole-cell patch clamp; read-out: Potency IC50 (nM) Kv1.6
T5 construct: expressed in transfected cells; host or cells: Chinese Hamster Ovary (CHO)
T5 sequence (P17658 whole entry): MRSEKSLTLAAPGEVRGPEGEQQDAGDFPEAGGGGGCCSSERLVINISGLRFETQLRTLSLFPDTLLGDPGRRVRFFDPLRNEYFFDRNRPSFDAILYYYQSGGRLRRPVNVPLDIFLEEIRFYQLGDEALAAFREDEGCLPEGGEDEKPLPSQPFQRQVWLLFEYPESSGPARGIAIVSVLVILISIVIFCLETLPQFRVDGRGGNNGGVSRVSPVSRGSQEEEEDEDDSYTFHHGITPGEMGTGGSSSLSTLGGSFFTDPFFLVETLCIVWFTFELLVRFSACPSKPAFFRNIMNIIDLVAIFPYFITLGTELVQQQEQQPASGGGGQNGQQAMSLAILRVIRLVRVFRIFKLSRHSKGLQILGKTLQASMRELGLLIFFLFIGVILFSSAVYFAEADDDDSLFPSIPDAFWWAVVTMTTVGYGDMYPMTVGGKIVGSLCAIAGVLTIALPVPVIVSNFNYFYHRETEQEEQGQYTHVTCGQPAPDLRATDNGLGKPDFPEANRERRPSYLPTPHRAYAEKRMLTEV

Rat whole blood = Rat whole blood (Rattus norvegicus, UniProt P15384)
Chain of Rat whole blood (P15384 whole entry): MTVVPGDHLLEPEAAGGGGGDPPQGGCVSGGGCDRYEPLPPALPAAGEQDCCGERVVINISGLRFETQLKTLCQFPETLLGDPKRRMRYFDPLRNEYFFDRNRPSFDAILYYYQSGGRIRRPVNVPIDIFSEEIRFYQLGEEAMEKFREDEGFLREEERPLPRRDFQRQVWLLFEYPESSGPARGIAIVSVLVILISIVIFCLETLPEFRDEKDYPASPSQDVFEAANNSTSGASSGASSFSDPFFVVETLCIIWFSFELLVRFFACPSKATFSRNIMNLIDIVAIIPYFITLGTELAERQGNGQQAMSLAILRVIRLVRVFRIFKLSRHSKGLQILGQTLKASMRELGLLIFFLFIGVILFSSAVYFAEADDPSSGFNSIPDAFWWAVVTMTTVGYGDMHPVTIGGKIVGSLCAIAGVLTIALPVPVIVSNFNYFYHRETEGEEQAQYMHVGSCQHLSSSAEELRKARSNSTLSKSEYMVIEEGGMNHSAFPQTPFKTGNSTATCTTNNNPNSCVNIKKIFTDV

Row | Structure (SMILES) | pIC50 [1] | IC50 (Kv1.1) [nM] | Selectivity Kv1.1/Kv1.3 (Kv1.1) | IC50 (Kv1.2) [nM] | IC50 (Kv1.3) [nM] | IC50 (Kv1.6) [nM] | pIC50 (Rat whole blood)
1 | CCCC[C@@H]1NC(=O)[C@@H]2CSSC[C@H](NC(=O)[C@H](CCCNC(=N)N)NC(=O)[C@H](CCCC)NC(=O)[C@H](CC(=O)O)NC(=O)[C@H](CCCC)NC(=O)[C@@H](N)CC(N)=O)C(=O)N[C@@H](CO)C(=O)N[C@@H](C)C(=O)N[C@@H](CO)C(=O)N[C@@H](C(C)C)C(=O)N[C@@H](CCC(=O)O)C(=O)N[C@H]3CSSC[C@H](NC(=O)[C@H](CCCCN)NC(=O)[C@H](CCCCN)NC(=O)[C@H](CC(N)=O)NC1=O)C(=O)N[C@@H](CCCCN)C(=O)N[C@H](C(=O)N[C@@H](Cc1ccc(O)cc1)C(=O)N1CCC[C@H]1C(=O)N[C@@H](CCCNC(=N)N)C(N)=O)CSSC[C@H](NC(=O)[C@H](CCCCN)NC(=O)[C@H](CCC(N)=O)NC(=O)[C@H](CCCCN)NC3=O)C(=O)N[C@@H](CCCCN)C(=O)N[C@@H](C)C(=O)N[C@@H]([C@@H](C)CC)C(=O)NCC(=O)N[C@@H](CO)C(=O)N[C@@H]([C@@H](C)CC)C(=O)N[C@@H](Cc1ccccc1)C(=O)NCC(=O)N[C@@H](CCCCN)C(=O)N2 [Compound 49] (H-N[Nle]D[Nle]RCSASVECKQKCKAIGSIFGKC[Nle]NKKCKCYPR-NH2; disulfide 6-26, 12-31, 16-33) | 9.44 | > 3000 | >2200 | 164 | 1.34 | 946 | ≥ 9.00
2 | CCCC[C@@H]1NC(=O)[C@@H]2CSSC[C@H](NC(=O)[C@H](CCCNC(=N)N)NC(=O)[C@H](CCCC)NC(=O)[C@H](CC(=O)O)NC(=O)[C@H](CCCC)NC(=O)[C@@H](N)CC(N)=O)C(=O)N[C@@H](CO)C(=O)N[C@@H](C)C(=O)N[C@@H](CO)C(=O)N[C@@H](C(C)C)C(=O)N[C@@H](CCC(=O)O)C(=O)N[C@H]3CSSC[C@H](NC(=O)[C@H](CCCCN)NC(=O)[C@H](CCCCN)NC(=O)[C@H](CC(N)=O)NC1=O)C(=O)N[C@@H](CCCCN)C(=O)N[C@H](C(=O)N[C@@H](Cc1ccc(O)cc1)C(=O)N1CCC[C@H]1C(=O)N[C@@H](CCCNC(=N)N)C(N)=O)CSSC[C@H](NC(=O)[C@H](CCCCN)NC(=O)[C@H](CCC(N)=O)NC(=O)[C@H](CCCCN)NC3=O)C(=O)N[C@@H](CC(C)C)C(=O)N[C@@H](CCCCN)C(=O)N[C@@H](C)C(=O)N[C@@H]([C@@H](C)CC)C(=O)NCC(=O)N[C@@H](CO)C(=O)N1CCC[C@H]1C(=O)N[C@@H](Cc1ccccc1)C(=O)NCC(=O)N[C@@H](CCCCN)C(=O)N2 [Compound 62] (H-N[Nle]D[Nle]RCSASVECKQKCLKAIGSPFGKC[Nle]NKKCKCYPR-NH2; disulfide 6-27, 12-32, 16-34) | 9.89 | > 3000 | >11600 | 449 | 0.26 | 2350 | ≥ 9.00
3 | CCCC[C@@H]1NC(=O)[C@@H]2CSSC[C@H](NC(=O)[C@H](CCCNC(=N)N)NC(=O)[C@H](CCCC)NC(=O)[C@H](CC(=O)O)NC(=O)[C@H](CCCC)NC(=O)[C@@H](N)CC(N)=O)C(=O)N[C@@H](CO)C(=O)N[C@@H](C)C(=O)N[C@@H](CO)C(=O)N[C@@H](CCCCN)C(=O)N[C@@H](CCC(=O)O)C(=O)N[C@H]3CSSC[C@H](NC(=O)[C@H](CCCCN)NC(=O)[C@H](CCCCN)NC(=O)[C@H](CC(N)=O)NC1=O)C(=O)N[C@@H](CCCCN)C(=O)N[C@H](C(=O)N[C@@H](Cc1ccc(O)cc1)C(=O)N1CCC[C@H]1C(=O)N[C@@H](CCCNC(=N)N)C(N)=O)CSSC[C@H](NC(=O)[C@H](CCCCN)NC(=O)[C@H](CCC(N)=O)NC(=O)[C@H](CCCCN)NC3=O)C(=O)N[C@@H](CC(C)C)C(=O)N[C@@H](CCCCN)C(=O)N[C@@H](C)C(=O)N[C@@H]([C@@H](C)CC)C(=O)NCC(=O)N[C@@H](CO)C(=O)N[C@@H]([C@@H](C)CC)C(=O)N[C@@H](Cc1ccccc1)C(=O)NCC(=O)N[C@@H](CCCCN)C(=O)N2 [Compound 63] (H-N[Nle]D[Nle]RCSASKECKQKCLKAIGSIFGKC[Nle]NKKCKCYPR-NH2; disulfide 6-27, 12-32, 16-34) | 9.89 | > 3000 | >9600 | 184 | 0.31 | 1230 | ≥ 9.00
